Data as given in patent US20220132898A1, “COMPOSITION COMPRISING TRANSGLYCOSYLATED STEVIOSIDE AND TRANSGLYCOSYLATED REBAUDIOSIDE A” (CJ CHEILJEDANG CORPORATION, priority 2019, published 2022).
“Also recorded” adds a separate entry of the source.

Assays:
[1] = Evaluation of actual sweetness and quality of sweetness by panels; format: in vivo; conditions: sample dissolved in water, evaluated by panels
Text: Two samples prepared in Example 1-1 above were independently dissolved in water and provided to panels for evaluation of actual sweetness and the quality of sweetness.

[2] = format: physicochemical
Experimental: The solubility of Rebaudioside A (RA), Stevioside (STV), α-1,6 transglucosylated Rebaudioside A (RA-Glu) of Example 1-1, and transglucosylated Stevioside (STV-Glu) was measured. In particular, the transglucosylated Stevioside was obtained by reacting Stevioside and sucrose in the presence of a glucosyltransferase in the same manner as in Example 1-1.
6 g of each of Rebaudioside A, Stevioside, transglucosylated Rebaudioside A, and transglucosylated Stevioside was mixed with 10 ml and then dissolved by sonication at 50° C. for 60 minutes. The resultant was incubated for 1 week in a water bath at 5° C., 15° C., 25° C., 35° C., 45° C., or 55° C. Thereafter, the resulting solution was centrifuged at 12000 rpm for 10 minutes, and 1 ml of the supernatant was collected and dried in an oven at 105° C. to measure the solubility.

| Solubility (%) [2] | solubility as compared to Stevioside and Rebaudioside A, respectively [2] | Substance | Quality of Sweetness [1] | Actual Sweetness [1] |
| --- | --- | --- | --- | --- |
| ≥ 40↑ % | remarkably increased solubility | α-1,6 transglucosylated Rebaudioside A [RA-Glu] | better quality of sweetness; also recorded: Gives sweet taste in the beginning, has a bit of bitter | – |
| – | – | α-1,4 transglucosylated Rebaudioside A | Bitter taste is stronger than sweet taste, has greasy | 19 |
| ≥ 40↑ % | remarkably increased solubility | transglucosylated Stevioside [STV-Glu] | – | – |
